This passage reports IC50 results from patent publication US20110301146A1 (ONCOTHERAPY SCIENCE, INC., priority 2008, published 2011).

The experiment concerns the target T1, GSK-3beta (Homo sapiens, UniProt P49841).
T1 construct: purchased Invitrogen
Kind of experiment: Z'-LYTE kinase assay (FRET, SER/THR 9 peptide). In kind it is biochemical. Conditions: 0.04 ng/micro-l GSK-3beta (Invitrogen), 2 micro-M SER/THR 9 peptide, 15 micro-M ATP, 1 hour at room temperature, 1% DMSO. On the procedure: The Z′-LYTE kinase assay kit employs a fluorescence resonance energy transfer (FRET) between two fluorophores, coumarin and fluorescein, attached to each end of a substrate peptide.
For 0% phosphorylation control, ATP was omitted from the reaction mixture. For 100% phosphorylation control, SER/THR 9 phosphopeptide was used in place of the SER/THR 9 peptide. Following 1 hour incubation at room temperature, the reaction was stopped by the addition of half assay volume of development solution and further incubated for 1 hour at room temperature. […] The extent of phosphorylation was determined according to the 0% and 100% phosphorylation control samples using the following equation: […]
IC50 values were calculated by nonlinear four parameter fit using SigmaPlot, version 10.0 (Systat Software, Inc.).

Each structure is given as a SMILES string.

T1 sequence (P49841 whole entry): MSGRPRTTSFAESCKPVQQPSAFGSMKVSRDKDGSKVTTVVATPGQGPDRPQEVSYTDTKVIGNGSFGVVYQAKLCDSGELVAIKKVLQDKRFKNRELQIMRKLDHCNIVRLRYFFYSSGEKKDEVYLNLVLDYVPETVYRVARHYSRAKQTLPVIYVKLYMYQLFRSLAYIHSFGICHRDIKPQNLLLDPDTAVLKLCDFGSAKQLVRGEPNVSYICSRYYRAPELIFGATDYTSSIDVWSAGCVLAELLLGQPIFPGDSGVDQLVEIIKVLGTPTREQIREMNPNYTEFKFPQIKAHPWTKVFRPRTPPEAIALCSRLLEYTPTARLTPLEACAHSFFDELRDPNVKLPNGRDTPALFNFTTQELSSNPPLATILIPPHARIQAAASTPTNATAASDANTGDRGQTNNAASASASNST

The term IC50 denotes the concentration that inhibits the measured activity by half. Read a low IC50 as inhibition by little substance. With `CC(C)(C)OC(=O)N1CCC[C@H](NC(=O)c2ccc(O)c3[nH]c(-c4ccc(Br)s4)nc23)C1` [Example 50, (S)-tert-Butyl 3-(2-(5-bromothiophen-2-yl)-7-hydroxy-1H-benzo[d]imidazole-4-carboxamido)piperidine-1-carboxylate], half-maximal inhibition (IC50) was put at 3.4 µM. This counts as single-digit micromolar. As for `O=C(N[C@H]1CCCNC1)c1ccc(O)c2[nH]c(-c3ccc(Br)s3)nc12` [Example 51, (S)-2-(5-bromothiophen-2-yl)-7-hydroxy-N-(piperidin-3-yl)-1H-benzo[d]imidazole-4-carboxamide], the figure is 0.016 µM; as for `O=C(N[C@H]1CCCNC1)c1ccc(O)c2[nH]c(C3CC4CCC3C4)nc12` (stereo partly drawn) [Example 52, 2-(Bicyclo[2.2.1]heptan-2-yl)-7-hydroxy-N-((S)-piperidin-3-yl)-1H-benzo[d]imidazole-4-carboxamide], 0.15 µM; as for `NC12CC3CC(C1)CC(NC(=O)c1ccc(O)c4[nH]c(C5CC6CCC5C6)nc14)(C3)C2` (stereo not drawn) [Example 53], 1.9 µM. As for `NC12CC3CC(C1)CC(NC(=O)c1ccc(O)c4[nH]c(-c5cccs5)nc14)(C3)C2` [Example 54, 2-(Thiophene-2-yl)-7-hydroxy-N-(adamantate-3-ylamino)-1H-benzo[d]imidazole-4-carboxamide], the figure is 0.33 µM; as for `NC1CCCC(NC(=O)c2ccc(O)c3[nH]c(C4CC5CCC4C5)nc23)C1` (stereo not drawn) [Example 55, N-(3-Aminocyclohexyl)-2-(bicyclo[2.2.1]heptan-2-yl)-7-hydroxy-1H-benzo[d]imidazole-4-carboxamide], 0.25 µM.

For the molecule `N[C@H]1CC[C@@H](CNC(=O)c2ccc(O)c3[nH]c(C4CC5CCC4C5)nc23)CC1` (stereo partly drawn) [Example 56, N-{[(cis)-4-Aminocyclohexyl]methyl}-2-(bicyclo[2.2.1]heptan-2-yl)-7-hydroxy-1H-benzo[d]imidazole-4-carboxamide], the IC50 came out at 0.24 µM. This IC50 and that of the molecule before are within 1.5-fold of each other. As for `O=C(N[C@H]1CCCNC1)c1ccc(O)c2[nH]c(-c3ccc(N4CCNCC4)s3)nc12` [Example 57, (S)-7-hydroxy-2-(5-(piperazin-1-yl)thiophen-2-yl)-N-(piperidin-3-yl)-1H-benzo[d]imidazole-4-carboxamide], the figure is 0.038 µM; as for `O=C(NC[C@@H]1CCCNC1)c1ccc(O)c2[nH]c(Cc3cccs3)nc12` [Example 58, (R)-7-hydroxy-N-(piperidin-3-ylmethyl)-2-(thiophen-2-ylmethyl)-1H-benzo[d]imidazole-4-carboxamide], 0.1 µM; as for `O=C(N[C@H]1CCCNC1)c1ccc(O)c2[nH]c(Cc3cccs3)nc12` [Example 59, (S)-7-hydroxy-N-(piperidin-3-yl)-2-(thiophen-2-ylmethyl)-1H-benzo[d]imidazole-4-carboxamide], 0.17 µM. For `O=C(NC[C@H]1CCCNC1)c1ccc(O)c2[nH]c(Cc3cccs3)nc12` [Example 60, (S)-7-hydroxy-N-(piperidin-3-ylmethyl)-2-(thiophen-2-ylmethyl)-1H-benzo[d]imidazole-4-carboxamide] the value was 0.16 µM. As to `O=C(NC1CCC(C(=O)O)CC1)c1ccc(O)c2[nH]c(-c3cccs3)nc12` (stereo not drawn) [Example 72, 4-[7-hydroxy-2-(thiophen-2-yl)-1H-benzo[d]imidazole-4-carboxamido]cyclohexanecarboxylic Acid], the IC50 worked out at 0.012 µM.
